The target in test [1] is Glycogen synthase kinase-3 beta (Homo sapiens, UniProt P49841). The test is described as follows: Inhibition of human recombinant full length GSK3-beta after 1 hrs by luminescence assay.
The test system of a further test is Escherichia coli. The test can be described thus: Antibacterial activity against Escherichia coli after 18 hrs by microdilution assay. It counts as functional. On the technique in general: Dilution methods test growth across graded concentrations, often in twofold steps.
The next test has as its system Staphylococcus aureus. The test is described as follows: Antibacterial activity against Staphylococcus aureus after 18 hrs by microdilution assay. The test is classed as functional.

Each structure is given as a SMILES string. pIC50: −log10 of the molar value. Converted amounts (≈) assume the structure as drawn. A value given as a limit tells only on which side of the number the result lay.

What is called pIC50 is the negative decadic logarithm of the IC50, by convention in mol/L. By MIC is commonly meant the smallest concentration in the dilution series that meets the test's criterion for growth inhibition.

Chain of Glycogen synthase kinase-3 beta (P49841 whole entry): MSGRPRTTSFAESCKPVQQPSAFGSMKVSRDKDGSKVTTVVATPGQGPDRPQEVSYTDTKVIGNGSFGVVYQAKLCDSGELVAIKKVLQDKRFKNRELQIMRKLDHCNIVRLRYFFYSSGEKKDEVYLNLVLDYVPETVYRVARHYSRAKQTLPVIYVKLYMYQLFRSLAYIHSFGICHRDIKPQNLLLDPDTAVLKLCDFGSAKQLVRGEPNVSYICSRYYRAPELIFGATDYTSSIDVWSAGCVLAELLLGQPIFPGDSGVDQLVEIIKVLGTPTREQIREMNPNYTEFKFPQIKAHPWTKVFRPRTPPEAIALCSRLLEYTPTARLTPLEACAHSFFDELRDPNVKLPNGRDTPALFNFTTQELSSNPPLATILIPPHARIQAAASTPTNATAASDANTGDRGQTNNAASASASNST

`CC(C)Nc1c(F)c(N)c2c(=O)c(C(=O)O)cn(C3CC3)c2c1F`: the pIC50 in test [1] is 5.92.
On the same count and under the same terms, next, `Nc1c(F)c(NC2CCCCC2)c(F)c2c1c(=O)c(C(=O)O)cn2C1CC1`: 6.22; `Nc1c(F)c(NCCc2c[nH]c3ccccc23)c(F)c2c1c(=O)c(C(=O)O)cn2C1CC1`: 6.18; `Nc1c(F)c(NCCN2CCOCC2)c(F)c2c1c(=O)c(C(=O)O)cn2C1CC1`: 5.68.
`Nc1c(F)c(NCCc2ccccc2)c(F)c2c1c(=O)c(C(=O)O)cn2C1CC1`: in test [1], the pIC50 is 6.36.
On the same count and under the same terms, next, `Nc1c(F)c(NCCCc2ccccc2)c(F)c2c1c(=O)c(C(=O)O)cn2C1CC1`: 7.35; `Nc1c(F)c(NCCCCc2ccccc2)c(F)c2c1c(=O)c(C(=O)O)cn2C1CC1`: 6.54; `Nc1c(F)c(NCCn2ccnc2)c(F)c2c1c(=O)c(C(=O)O)cn2C1CC1`: 5.47.
On the same count and under the same terms, next, `Nc1c(F)c(NCCCn2ccnc2)c(F)c2c1c(=O)c(C(=O)O)cn2C1CC1`: 7.35; `Nc1c(F)c(NCCNc2cccc3ccccc23)c(F)c2c1c(=O)c(C(=O)O)cn2C1CC1`: 7.33.
The same measure, in the same setting: next, `Nc1c(F)c(NCCc2ccncc2)c(F)c2c1c(=O)c(C(=O)O)cn2C1CC1`: 7.00; `Nc1c(F)c(NCCNc2ccccn2)c(F)c2c1c(=O)c(C(=O)O)cn2C1CC1`: 6.72; `CC(C)OCCCNc1c(F)c(N)c2c(=O)c(C(=O)O)cn(C3CC3)c2c1F`: 6.96.
On to `COc1c(NCCCc2ccccc2)c(F)cc2c(=O)c(C(=O)O)cn(C3CC3)c12`, for which the negative logarithm of the IC50 (pIC50) in test [1] is 4.77.
Turning to `COc1c(NCCCc2ccccc2)c(F)c(N)c2c(=O)c(C(=O)O)cn(C3CC3)c12`, the negative logarithm of the IC50 (pIC50) in test [1] was 7.19.
Same read-out and setting: under `COc1c(NCCNc2cccc3ccccc23)c(F)cc2c(=O)c(C(=O)O)cn(C3CC3)c12` stands 4.59; under `COc1c(NCCNc2cccc3ccccc23)c(F)c(N)c2c(=O)c(C(=O)O)cn(C3CC3)c12`, 7.51.
As to `Nc1c(F)c(NCCNc2ccccn2)cc2c1c(=O)c(C(=O)O)cn2C1CC1`, the negative logarithm of the IC50 (pIC50) in test [1] is 7.89. The values for the minimal inhibitory concentration (MIC) with Escherichia coli and with Staphylococcus aureus were 0.8 µM (≈ 0.318 µg/mL) and 0.2 µM (≈ 0.0795 µg/mL), respectively.
In the same order, the values of `COc1c(NCCNc2ccccn2)c(F)c(N)c2c(=O)c(C(=O)O)cn(C3CC3)c12` are 6.80, 9 µM (≈ 3.85 µg/mL) and 1 µM (≈ 0.427 µg/mL).
For `COc1c(NCCNc2ccccn2)c(F)c(N)c2c(=O)c(C(=O)O)cn(C3CCCC3)c12`, in that order: 5.82, more than 28 µM and 7 µM (≈ 3.19 µg/mL).
For `Nc1c(F)c(NCCNc2ccccn2)c(F)c2c1c(=O)c(C(=O)O)cn2C1CCCC1`, in that order: 7.66, more than 29 µM and more than 29 µM.
Turning to `COc1c(NCCNc2ccccn2)c(F)c(N)c2c(=O)c(C(=O)O)c[nH]c12`, the pIC50 in test [1] is 6.00. Further, the MIC with Escherichia coli and in the test on Staphylococcus aureus was 25 µM (≈ 9.68 µg/mL) each time.
For `COc1c(NCCNc2ccccn2)c(F)c(N)c2c(=O)c(C(=O)O)cn(C)c12`, in test [1], the pIC50 was 6.57. Besides, the MIC was more than 13 µM with Escherichia coli and 13 µM (≈ 5.22 µg/mL) in the test with Staphylococcus aureus.
For `COc1c(NCCNc2ccccn2)c(F)c(N)c2c(=O)c(C(=O)O)cn(CCC(C)C)c12`, in that order: 4.80, more than 28 µM and more than 28 µM.
In the same order, the values of `C[C@@H]1COc2c(NCCNc3ccccn3)c(F)c(N)c3c(=O)c(C(=O)O)cn1c23` are 6.25, more than 243 µM and 243 µM (≈ 100 µg/mL).
`C[C@H]1COc2c(NCCNc3ccccn3)c(F)c(N)c3c(=O)c(C(=O)O)cn1c23`: in test [1], the pIC50 is 7.36. The values for the MIC against Escherichia coli and with Staphylococcus aureus were 4 µM (≈ 1.65 µg/mL) and 2 µM (≈ 0.827 µg/mL), respectively.
In the same order, the values of `CC(C)[C@@H]1COc2c(NCCNc3ccccn3)c(F)c(N)c3c(=O)c(C(=O)O)cn1c23` are 7.51, more than 2 µM and more than 2 µM.
Regarding `CC(C)[C@H]1COc2c(NCCNc3ccccn3)c(F)c(N)c3c(=O)c(C(=O)O)cn1c23`, in test [1], the pIC50 was 7.12. The minimal inhibitory concentration (MIC) was more than 29 µM in the test with Escherichia coli and 14 µM (≈ 6.18 µg/mL) against Staphylococcus aureus.
On to `CC1(C)COc2c(NCCNc3ccccn3)c(F)c(N)c3c(=O)c(C(=O)O)cn1c23`, for which the pIC50 in test [1] is 7.31. Besides, the MIC against Escherichia coli and in the test with Staphylococcus aureus was 59 µM (≈ 25.2 µg/mL) throughout.
`CC1(C)Cn2cc(C(=O)O)c(=O)c3c(N)c(F)c(NCCNc4ccccn4)c(c32)O1`: the pIC50 in test [1] is 6.36. For the same compound, the MIC in the test with Escherichia coli and against Staphylococcus aureus was more than 37 µM throughout.
On to `CC1(C)COc2c(NCCNc3ccccn3)c(F)c(N)c3c(=O)c(C(=O)O)cn(c23)C1`, for which the pIC50 in test [1] is 6.80. The minimal inhibitory concentration (MIC) in the test on Escherichia coli and in the test on Staphylococcus aureus was more than 7 µM throughout.
For `Nc1c(F)c(NCCNc2ccccn2)c2c3c1c(=O)c(C(=O)O)cn3C1(CCC1)CO2`, the pIC50 in test [1] is 7.24. The minimal inhibitory concentration (MIC) with Escherichia coli and in the test with Staphylococcus aureus was more than 36 µM throughout.
For `Nc1c(F)c(NCCNc2ccccn2)c2c3c1c(=O)c(C(=O)O)cn3C1(CCCC1)CO2`, the pIC50 in test [1] is 7.92. Also, the figures for the MIC against Escherichia coli and with Staphylococcus aureus were more than 71 µM and 71 µM (≈ 32.2 µg/mL), respectively.
Turning to `Nc1ccc(CCNc2c(F)c(N)c3c(=O)c(C(=O)O)cn(C4CC4)c3c2F)cc1`, in test [1], the pIC50 was 6.05.

The record behind these values is ChEMBL document CHEMBL1833925, “Synthesis and structure-activity relationship of 4-quinolone-3-carboxylic acid based inhibitors of glycogen synthase kinase-3β” (Bioorg Med Chem Lett, 2011).
